We go through one compound from patent US12594265B2, “Methods and compositions for inhibition of STAT3” (Ohio State Innovation Foundation, priority 2017, dated 2026).

The test system of data set [1] is splenocytes from naïve TCR transgenic mice. Kind of data set: Cellular toxicity, trypan blue exclusion assay. The conditions noted are these: 24 h, 48 h, 72 h; at the doses showing significant suppression of IL-17 production. It counts as cell-based. As to the method:
In vitro toxicity evaluation of new STAT3 prodrugs. Cellular toxicity testing was carried out using a trypan blue exclusion assay as described herein. FIGS. 6A-6C show representative data for cell viability after treatment with DMSO or the indicated concentration of the indicated representative prodrug at 24 h, 48 h, and 72 h post-treatment. The data were obtained using a trypan blue exclusion assay using splenocytes from naïve TCR transgenic mice that were cultured as described.

Data set [2] has as its system relapsing-remitting EAE model of MS. Kind of data set: Relapsing-remitting EAE model of MS (PLP-immunized SJL mice). The format is in vivo. To be noted: 10 mg/kg daily, days 9-15 or days 36-42. As to the method: EAE Induction. Immunization: 8-10 week old B6/WT or SJL/WT mice were s.c. injected over four sites in the flank with 200 μg MOG 35-55 or […] (CS bio) in an emulsion with CFA (Difco). 200 ng pertussis toxin (List) per mouse in PBS was injected i.p. at the time of immunization and 48 h later. Adoptive transfer: Splenocytes were isolated from naïve 5-10-week-old Vα2.3/Vβ8.2 TCR transgenic mice and activated with 10 μg/ml of MBP Ac1-11 with or without rmIL-6 in 24-well plates at […] with irradiated B10.PL splenocytes (6×10^8 cells/well). After 72 hours, the cells were washed with PBS and 8×10^6 were injected i.p. into naïve B10.PL mice. Evaluation. The mice were evaluated daily for clinical signs of EAE. Mice were scored on scale of 0 to 6:0, no clinical disease; 1, limp/flaccid tail; 2, moderate hind limb weakness; 3. severe hind limb weakness; 4. complete hind limb paralysis; 5 quadriplegia or premoribund state; and 6, death.
SJL mice develop relapsing-remitting disease after immunization with PLP 139-151, which resembles human relapsing-remitting MS, the major subtype of MS that affects more than 85% of MS patients. […]

The test system of data set [3] is pSTAT3 in myelin-specific CD4 T cells. Kind of data set: pSTAT3 levels in myelin-specific CD4 T cells (intracellular flow cytometry). It counts as cell-based, mice. To be noted: 0.250 μM; MBP Ac1-11 and IL-6 activation. As to the method:
Intracellular staining and flow cytometric analysis. Flow cytometric analysis was performed to evaluate the expression of surface markers and T-bet in CD4 T cells, as previously described (Yang, Weiner et al. 2009). Briefly, splenocytes were activated with antigen or αCD3/CD28 for 48 to 72 hours. Cells were then collected, washed, and resuspended in staining buffer (1% BSA in PBS). The cells were incubated with mAbs to the cell-surface markers for 30 min at 4° C. After washing twice with staining buffer, cells were fixed and permeabilized using Cytofix/Cytoperm solution for 20 min at 4° C. Cells were stained for intracellular cytokines and T-bet for 30 min at 4° C. 80,000-100,000 live cell events were acquired on a FACSCanto (BD) and analyzed using FlowJo software (Tree Star, Inc.). PerCP-anti-CD4, and Pacific Blue-anti-CD44 were purchased from BD. PE-anti-PD-1, PE-Cy7-anti-IL-7Rα and Pacific Blue-anti-T-bet were purchased from Biolegend Biotechnology, Inc.
LLL12b suppresses pSTAT3 expression and IL-17 production in myelin-specific CD4 T cells in a dose-dependent manner. LLL21b was further tested to assess suppression of pSTAT3 expression in myelin-specific CD4 T cells. FIGS. 7A-7B show representative data for the effect of a representative disclosed compound, LLL12b, on IL-17 production, pSTAT3 levels, and cell viability under various conditions. […]
A general note: A flow cytometer gives signals particle by particle.

For data set [4], the system named is Teff cells from MS patients. As to the kind of experiment: CFSE-based Treg-mediated suppression assay on Teff cells from MS patients. To be noted: 0.25 μM for 1-2 hrs; 3 treatment-naïve MS patients. It counts as cell-based, human. The procedure:
FIGS. 15A-15C show representative data for LLL12b enhancement of Treg-mediated suppression on Teff cells obtained from MS patients. PBMCs were obtained from three treatment-naïve MS patients and were activated with αhCD3/CD28 plus rhTGFβ, rhIL-2 and RA for 3 days to generate Tregs. Meanwhile, PBMCs from the same three MS patients were labeled with CFSE and cultured with 0.25 μM of LLL12b or DMSO for 1-2 hours. The LLL12b or DMSO treated CFSE-CD4 T cells were then mixed with Tregs generated from the same patient at different ratios and activated with αhCD3 for 5 days. Proliferation of Teff cells was determined by flow cytometric analysis of CFSE on CD4 T cells. Cells were gated on CD4+ cells.
LLL12b enhances Treg mediated suppression on Teff cells from MS patients. Since Teff cells from MS patients are resistant to Treg mediated suppression and IL-6/STAT3 signaling promotes the resistance of Teff in MS patient, we determined whether LLL12b may enhance the Treg-mediated suppression on Teff from MS patients using CFSE-based suppression assay. PBMCs from three treatment-naïve MS patients were labeled with CFSE and cultured with 0.25 μM of LLL12b or DMSO for 1-2 hrs. Then the CFSE-CD4 T cells were mixed with iTregs differentiated from the same patient at different ratio, and activated with αhCD3 for 5 days. […]

Take `CN(C)C(=O)Oc1cccc2c1C(=O)c1cccc(S(N)(=O)=O)c1C2=O` [LLL12b]: in data set [1], the “cellular toxicity (cell viability, trypan blue exclusion)” value is on record as “minimal cellular toxicity”. Besides, the “acute and relapsing EAE (mean clinical score)” value in data set [2] is “significantly suppresses acute and relapsing EAE”. Also, in data set [3], the pSTAT3 expression result is “notably suppresses pSTAT3 expression”. Besides, the “Treg mediated suppression on Teff cells (% suppression)” value in data set [4] is given as “significantly increased”.
